Laboratory results: PubChem BioAssay (NCI)
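Compound exposure: 48 hours, 5 concentrations, 96-well plates. Definition used: TGI = concentration required for complete inhibition of growth.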

What was measured:
Assay in all cases: NCI tumour cell line growth inhibition, 48 h
[1] = system: DU-145 prostate
[2] = system: TK-10 renal
[3] = system: CCRF-CEM leukemia
[4] = system: SK-MEL-5 melanoma
[5] = system: SK-MEL-28 melanoma
[6] = system: SF-268 CNS
[7] = system: CAKI-1 renal
[8] = system: EKVX NSCLC
[9] = system: IGROV1 ovarian
[10] = system: U251 CNS
[11] = system: HL-60(TB) leukemia
[12] = system: SR leukemia
[13] = system: COLO 205 colon
[14] = system: OVCAR-3 ovarian
[15] = system: MDA-MB-231 breast
[16] = system: NCI-H226 lung
[17] = system: OVCAR-5 ovarian
[18] = system: HCT-15 colon
[19] = system: HCT-116 colon
[20] = system: HOP-92 NSCLC
[21] = system: NCI-H522 lung
[22] = system: SK-MEL-2 melanoma
[23] = system: MCF7 breast
[24] = system: SNB-75 CNS
[25] = system: KM12 colon
[26] = system: NCI/ADR-RES ovarian
[27] = system: MOLT-4 leukemia
[28] = system: MALME-3M melanoma
[29] = system: BT-549 breast
[30] = system: UACC-257 melanoma
[31] = system: UO-31 renal
[32] = system: HT29 colon
[33] = system: SN12C renal
[34] = system: MDA-MB-435
[35] = system: PC-3 prostate
[36] = system: K-562 leukemia
[37] = system: RPMI-8226 leukemia
[38] = system: SW-620 colon
[39] = system: OVCAR-8 ovarian
[40] = system: NCI-H23 lung
[41] = system: M14 melanoma
[42] = system: SNB-19 CNS
[43] = system: ACHN renal
[44] = system: A549 NSCLC
[45] = system: HOP-62 NSCLC
[46] = system: SF-295 CNS
[47] = system: T-47D breast
[48] = system: OVCAR-4 ovarian
[49] = system: 786-0 renal
[50] = system: A498 renal
[51] = system: MDA-N
[52] = system: RXF 393 renal
[53] = system: LOX IMVI melanoma
[54] = system: SK-OV-3 ovarian
[55] = system: HS 578T breast
[56] = system: NCI-H460 lung
[57] = system: SF-539 CNS
[58] = system: UACC-62 melanoma

SMILES: Cc1ccc2nc(-c3ccc(-n4c(C)nc(=O)c(-c5ccc(F)cc5)c4C)cc3)sc2c1
- TGI [1]: 30 µM
- TGI [2]: 30.8 µM
- TGI [3]: 32.7 µM
- TGI [4]: 24.5 µM
- TGI [5]: 50.7 µM
- TGI [6]: 53.9 µM
- TGI [7]: 35.1 µM
- TGI [8]: 30 µM
- TGI [9]: 31.4 µM
- TGI [10]: 30.7 µM
- TGI [11]: 34.2 µM
- TGI [12]: 29.5 µM
- TGI [13]: 20.5 µM
- TGI [14]: 28.4 µM
- TGI [15]: 28.8 µM
- TGI [16]: 41.6 µM
- TGI [17]: 35.9 µM
- TGI [18]: 34.4 µM
- TGI [19]: 29.4 µM
- TGI [20]: 36.9 µM
- TGI [21]: 35.2 µM
- TGI [22]: 35.4 µM
- TGI [23]: 34.7 µM
- TGI [24]: 27.4 µM
- TGI [25]: 38.4 µM
- TGI [26]: 35 µM
- TGI [27]: 27.7 µM
- TGI [28]: 32.5 µM
- TGI [29]: 29.9 µM
- TGI [30]: 30.1 µM
- TGI [31]: 30.6 µM
- TGI [32]: 30.1 µM
- TGI [33]: 33.8 µM
- TGI [34]: 32.2 µM
- TGI [35]: 25.1 µM
- TGI [36]: 45.4 µM
- TGI [37]: 39.6 µM
- TGI [38]: 57.2 µM
- TGI [39]: 42.9 µM
- TGI [40]: 32.2 µM
- TGI [41]: 26.4 µM
- TGI [42]: 29.5 µM
- TGI [43]: 28.4 µM
- TGI [44]: 35.6 µM
- TGI [45]: 45.5 µM
- TGI [46]: 33.1 µM
- TGI [47]: 17.2 µM
- TGI [48]: 56.6 µM
- TGI [49]: 29.9 µM
- TGI [50]: 32.9 µM
- TGI [51]: 32.2 µM
- TGI [52]: 23.2 µM
- TGI [53]: 53.6 µM
- TGI [54]: 29.3 µM
- TGI [55]: 96.9 µM

SMILES: O=C1Nc2ccccc2S/C1=C\c1cccc(C(F)(F)F)c1
- TGI [1]: > 100 µM
- TGI [2]: > 100 µM
- TGI [3]: > 100 µM
- TGI [4]: > 100 µM
- TGI [5]: > 100 µM
- TGI [6]: > 100 µM
- TGI [7]: 37.4 µM
- TGI [8]: > 100 µM
- TGI [9]: > 100 µM
- TGI [10]: > 100 µM
- TGI [11]: > 100 µM
- TGI [12]: > 100 µM
- TGI [56]: > 100 µM
- TGI [13]: > 100 µM
- TGI [14]: > 100 µM
- TGI [15]: > 100 µM
- TGI [16]: > 100 µM
- TGI [17]: > 100 µM
- TGI [18]: > 100 µM
- TGI [19]: > 100 µM
- TGI [57]: > 100 µM
- TGI [20]: > 100 µM
- TGI [21]: > 100 µM
- TGI [22]: > 100 µM
- TGI [23]: > 100 µM
- TGI [24]: > 100 µM
- TGI [25]: > 100 µM
- TGI [26]: > 100 µM
- TGI [27]: > 100 µM
- TGI [28]: > 100 µM
- TGI [29]: > 100 µM
- TGI [30]: > 100 µM
- TGI [31]: > 100 µM
- TGI [32]: > 100 µM
- TGI [58]: > 100 µM
- TGI [33]: > 100 µM
- TGI [34]: > 100 µM
- TGI [35]: > 100 µM
- TGI [36]: > 100 µM
- TGI [37]: > 100 µM
- TGI [38]: > 100 µM
- TGI [39]: > 100 µM
- TGI [41]: > 100 µM
- TGI [42]: > 100 µM
- TGI [43]: > 100 µM
- TGI [44]: > 100 µM
- TGI [45]: > 100 µM
- TGI [46]: > 100 µM
- TGI [47]: > 100 µM
- TGI [48]: > 100 µM
- TGI [49]: > 100 µM
- TGI [50]: > 100 µM
- TGI [51]: > 100 µM
- TGI [52]: > 100 µM
- TGI [53]: > 100 µM
- TGI [54]: > 100 µM
- TGI [55]: > 100 µM
